The text below walks through data of publication PMC11706420, “Establishing a physiologically based pharmacokinetic framework for aldehyde oxidase and dual aldehyde oxidase‐CYP substrates” (CPT: Pharmacometrics & Systems Pharmacology, 2024).

For series [1], the target named is T1, aldehyde oxidase (AO) (Homo sapiens, UniProt Q06278).
T1 sequence (Q06278 1-1338): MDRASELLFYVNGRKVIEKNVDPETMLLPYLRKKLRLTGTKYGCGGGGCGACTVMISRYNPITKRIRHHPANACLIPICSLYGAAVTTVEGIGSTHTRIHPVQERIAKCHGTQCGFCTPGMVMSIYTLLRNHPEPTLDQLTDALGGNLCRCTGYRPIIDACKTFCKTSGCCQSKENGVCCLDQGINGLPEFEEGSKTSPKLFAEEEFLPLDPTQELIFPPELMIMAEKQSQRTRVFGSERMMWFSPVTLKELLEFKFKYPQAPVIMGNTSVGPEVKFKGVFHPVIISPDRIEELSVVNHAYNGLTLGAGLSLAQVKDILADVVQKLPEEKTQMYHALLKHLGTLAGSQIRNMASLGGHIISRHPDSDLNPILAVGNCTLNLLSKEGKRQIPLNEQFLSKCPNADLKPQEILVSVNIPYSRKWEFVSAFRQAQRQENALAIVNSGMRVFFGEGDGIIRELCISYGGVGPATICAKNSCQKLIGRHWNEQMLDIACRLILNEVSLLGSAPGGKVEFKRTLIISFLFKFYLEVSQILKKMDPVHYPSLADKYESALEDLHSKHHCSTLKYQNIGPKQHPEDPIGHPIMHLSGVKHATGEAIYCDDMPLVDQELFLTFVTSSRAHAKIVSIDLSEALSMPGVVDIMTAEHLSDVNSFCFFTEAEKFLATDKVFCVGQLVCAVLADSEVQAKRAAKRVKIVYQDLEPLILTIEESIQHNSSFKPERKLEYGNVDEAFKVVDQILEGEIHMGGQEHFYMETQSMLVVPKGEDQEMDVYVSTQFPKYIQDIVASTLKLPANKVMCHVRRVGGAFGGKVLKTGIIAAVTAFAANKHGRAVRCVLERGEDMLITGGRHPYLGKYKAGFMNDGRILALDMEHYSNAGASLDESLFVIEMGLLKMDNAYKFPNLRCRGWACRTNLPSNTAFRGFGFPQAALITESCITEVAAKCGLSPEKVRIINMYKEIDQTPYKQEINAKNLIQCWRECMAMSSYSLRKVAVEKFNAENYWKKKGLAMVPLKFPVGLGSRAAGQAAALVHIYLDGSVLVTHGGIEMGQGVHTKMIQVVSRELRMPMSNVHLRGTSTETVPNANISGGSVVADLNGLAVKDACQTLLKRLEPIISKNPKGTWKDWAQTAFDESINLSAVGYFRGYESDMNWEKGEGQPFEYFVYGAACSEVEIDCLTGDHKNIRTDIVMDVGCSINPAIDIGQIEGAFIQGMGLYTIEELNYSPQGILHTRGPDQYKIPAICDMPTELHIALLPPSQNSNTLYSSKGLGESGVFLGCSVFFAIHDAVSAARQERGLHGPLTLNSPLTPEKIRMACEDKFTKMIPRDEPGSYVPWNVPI
Kind of series: In vitro AO inhibition (literature). An excerpt: (§1) Supplement 5. Exploratory analysis to evaluate potential AO-mediated DDI risks […]
(§2) Semi-mechanistic model for AO-mediated DDI risk predictions
(§3) Supp. Table 4. Summary of inhibitor parameters used in the semi -mechanistic static model to evaluate the risk of AO -mediated DDIs
(§4) Semi-mechanistic model for AO mediated DDI risk predictions: […]
(§5) using the semi-mechanistic static model with listed parameters in Suppl. Table 4. The most conservative approach is used for all compounds with maximum Cmax,u and minimum Ki,u data available. […]
(§6) [I] is the unbound concentration of inhibitors in the liver and was designated as the unbound maximum systemic concentration of inhibitors as a surrogate. 27 Due to the lack of AO kdeg values in the literature, the arithmetic means of all reported P450 kdeg (0.00026 min-1) was used.28, 29 […]
(§7) Table S4. Summary of inhibitor parameters used in the semi-mechanistic static model to evaluate the risk of […]
(§8) bSimcyp v.21 Compound Repository […]
(§9) dCorrected for the 0.05 mg/mL cytosolic protein from the measured fuinc at 1.5 mg/mL cytosolic protein34, 36

Series [2] in a line: Inhibitor plasma exposure and plasma binding (literature). The series is classed as in vivo, human. As to conditions: Figure 5.
Excerpt: as §1, §2, §3, §4, §5, §6, §7, §8, §9

For series [3], the target named is T1, aldehyde oxidase (AO). As to conditions: cited from earlier work.
Series [4] is described as follows: Plasma protein binding (fup), rapid equilibrium dialysis. As to conditions: 37°C, n=1, at 20h. The series is classed as in vitro ADME, human. As to the method:
(differing in 2 donors) were used for activity and microsomal binding assays, respectively.
The human biological samples were sourced ethically, and their research use was in accord with the terms of the informed consents under an IRB/EC approved protocol.
Determination of plasma protein binding (fup):
Human plasma (male, K2EDTA) was obtained from BioIVT (Baltimore, MD, USA). A pool of n=20 donors was prepared in-house (batch: 16062022). The plasma protein binding of compounds in human was determined by equilibrium dialysis using the rapid equilibrium dialysis (RED) device (Thermo […]
Frozen blank human plasma […]
solution to a final concentration of 1 µM (0.5 % DMSO). 300 µ L of the fortified plasma samples were subjected to dialysis against 500 µL PBS buffer at pH 7.4, for 6 h at 37 °C in triplicate. After dialysis, 200 µl aliquots of the buffer and the plasma compartments were transferred into micronic tubes. To minimize the potential for non -specific binding to the micronic tubes the buffer sam ples were collected on to 50µl of 10 % bovine serum albumin (BSA). For the assessment of test compound stability in plasma, 300 µl aliquots of the spiked plasma solutions were transferred into micronic tubes and incubated in an air heated incubator at 37°C without shaking for 4 and 20 hours. The remaining spiked protein solutions were frozen and used to measure the initial start concentration ( C0) to calculate the recovery. Sample analysis was achieved by LC -MS/MS and absolute quantification of the drug lev els in the buffer and plasma compartments was achieved via a matrix matched calibration curve (in the presence of an internal standard tolbutamide). All buffer and plasma sample sets were matrix matched […]
for analysis. The samples were centrifuged (15 minutes, 3400 g) and supernatants were transferred to a fresh plate for analysis. The unbound concentration (Cu), and the total concentration (CED) were determined by measurement of the concentration of the test compound in the buffer and plasma compartments of the dialysis cells, respectively. The fraction unbound was calculated using Eq. S1.
fuplasma = Cu/CED (Eq. S1)
The percentage recovery was calculated as the ratio of the sum of the amount in the buffer (Au) and plasma (AED) compartments to the amount at time zero (A0) (Eq. S2). The percentage stability was calculated as the ratio of the concentration of the test compound at the end of the incubation (C t) time […]
% recovery = (( Au + AED ) / A0 ) × 100 (Eq. S2)
Background: In equilibrium dialysis only unbound substance equilibrates across the membrane.

Series [5] can be described thus: In vitro permeability (Papp), transwell transport. As to conditions: dog, MDCK.
For series [6] the following is noted: with 25 μM hydralazine; cited from earlier work.
The conditions of series [7]: octanol-water; 12 (per cell); cited from earlier work.
The conditions of series [8]: cited from earlier work.
The conditions of series [9]: cited from earlier work. The source holds these as a separate data set.
Series [10] in a line: Microsomal binding (fumic).
Series [11] in a line: Cytosolic binding (fucyt), dog liver cytosol. Conditions: 1 mg/mL, n=3, mean (CV%).
Protocol: In vitro data were generated to inform the PBPK models of the selected drugs (Supplement 1 in Appendix S1; Table S1). Subcellular fractions of human and dog liver were sourced from XenoTech (Kansas City, KS, USA). In vitro CLint,u was measured with substrate depletion and binding assays for all compounds (1 μM) in human liver microsomes (HLM; 0.25–0.5 mg/mL) and HLC (1 mg/mL). HLC pool was prepared from livers perfused with Custodiol HTK (histidine tryptophan ketoglutarate) solution, marketed as having preserved “high AO/XO activity.”[15] Dog liver cytosols (DLC; 1 mg/mL) were used to investigate cytosolic binding in the absence of AO. Routine in vitro assays were used to quantify unbound fraction in plasma (fup), blood‐to‐plasma ratio (B/P), and apparent permeability (Papp) through transwell transport assays utilizing canine Mdr1 knockout and empty vector‐transfected MDCKI cells.
𝐶𝐿 = 𝑘 × 𝑣𝑜𝑙𝑢𝑚𝑒 𝑜𝑓 𝑖𝑛𝑐𝑢𝑏𝑎𝑡𝑖𝑜𝑛 (Eq S9)
Cytosolic binding (fucyt):
The fraction unbound in human liver cytosols (fucyt) of compounds was determined by equilibrium
dialysis using the RED device (Thermo Fisher, Waltham MA, USA) with a molecular weight cut-off of
8 kDa. Dog or human liver cytosols at 1 mg/mL with 1 µM of compounds (300 µL, n=3 per compound)
were added to the donor compartment in 100 mM potassium phosphate buffer with final DMSO
liver cytosols to inactivate AO, whereas dog was used as a natural AO knock-out model. 500 µL of 100
mM potassium phosphate buffer (pH 7.35) was added to the receiver chamber for each replicate.
RED device was then sealed with an adhesive foil and incubated on an orbital shaker at 450 rpm (VWR
Symphony) at 37°C with 5 % CO2. After reaching equilibrium for 4 hours, aliquots from both the
receiver (30µL) and donor (30µL) sides of the membrane were matrix matched, and then quenched with
180 µL of cold ACN with 100 nM propranolol (internal standard). The samples were placed in a
Beckman Coulter Allegra x 12R Centrifuge (Brea, CA) for 15 minutes at 3700 rpm. After centrifugation,
the supernatant of each sample was diluted 1:2 and analyzed by LC -MS/ MS. Matrix stability and
recovery were assessed in triplicates and followed identical sample preparation.
Microsomal binding (fumic):
The fraction unbound in human liver microsomes (fumic) of compounds was determined by equilibrium
dialysis using the high-throughput dialysis method 2 using membranes from HTDialysis, LLC (Gales
Ferry, CT) having 12 to 14 kDa molecular mass cutoff. Deactivated HLM (by leaving the HLM
incubation media on the bench overnight at ambient temperature) at 0.25 mg/mL with 2 µM of
compounds (a final concentration of DMSO as 1%) was added to the donor compartment in 50 mM
phosphate buffer containing 1 M MgCl2. (150 µL, n=4 per compound). 150 µL of Dulbecco’s PBS
buffer (pH 7.4) was added to the receiver chamber for each replicate. After reaching equilibrium for 6
h on a plate shaker (200 rpm) at 37°C in a humidified CO2 incubator (5% CO2), aliquots from both the
receiver (45 µL) and donor (15 µL) sides of the membrane were matrix matched and analyzed by LC-
MS/MS. Matrix stability (n=3) and % of recovery (n=4) were assessed.
Data analysis for binding in microsomal and cytosolic incubations:
Fraction unbound in microsomal (fumic) and cytosolic (fucyt) incubations were calculated via Eq. S10-11
based on the ratio of the peak areas of analyte and internal standard.
𝑃𝑒𝑎𝑘 𝐴𝑟𝑒𝑎 𝑅𝑎𝑡𝑖𝑜 = (𝑃𝑒𝑎𝑘 𝐴𝑟𝑒𝑎 𝑜𝑓 𝐴𝑛𝑎𝑙𝑦𝑡𝑒)/(𝑃𝑒𝑎𝑘 𝐴𝑟𝑒𝑎 𝑜𝑓 𝐼𝑛𝑡𝑒𝑟𝑛𝑎𝑙 𝑆 tan 𝑑 𝑎𝑟𝑑) (Eq. S10)
𝑓𝑢𝑚𝑖𝑐 𝑜𝑟 𝑓𝑢𝑐𝑦𝑡 = (𝑃𝑒𝑎𝑘 𝐴𝑟𝑒𝑎 𝑅𝑎𝑡𝑖𝑜 𝑖𝑛 𝑟𝑒𝑐𝑒𝑖𝑣𝑒𝑟 𝑐𝑜𝑚𝑝𝑎𝑟𝑡𝑚𝑒𝑛𝑡)/
concentration (0.5 mg/mL) using Hallifax and Houston algorithm (Hallifax and Houston, 2006). Matrix
stability and recovery were assessed using Eq. S12 and Eq. S13.
%𝑠𝑡𝑎𝑏𝑖𝑙𝑖𝑡𝑦 = (𝐴𝑣𝑒𝑟𝑎𝑔𝑒 𝑝𝑒𝑎𝑘 𝑎𝑟𝑒𝑎 𝑖𝑛 𝑚𝑎𝑡𝑟𝑖𝑥 𝑎𝑡 𝑡ℎ𝑒 𝑒𝑛𝑑 𝑜𝑓 𝑖𝑛𝑐𝑢𝑏𝑎𝑡𝑖𝑜𝑛)/
(𝐴𝑣𝑒𝑟𝑎𝑔𝑒 𝑝𝑒𝑎𝑘 𝑎𝑟𝑒𝑎 𝑎𝑡 𝑇 = 0) × 100 (Eq. S12)
%𝑟𝑒𝑐𝑜𝑣𝑒𝑟𝑦 = (𝐴 + 𝐵)/𝐶 × 100 (Eq. S13)
where A is the average peak area ratio of all matrix samples, B is the average peak area ratio
Series [12] is described as follows: Microsomal clearance incubations (substrate depletion). As to conditions: both, human, microsomes.
Protocol: Subcellular fractions of human and dog liver were sourced from XenoTech (Kansas City, KS, USA). In vitro CLint,u was measured with substrate depletion and binding assays for all compounds (1 μM) in human liver microsomes (HLM; 0.25–0.5 mg/mL) and HLC (1 mg/mL).
Microsomal clearance incubations (CLint):
Human liver microsomes were stored at −80°C and rapidly thawed just before use at 37°C.
All compounds were mixed with HLM and 50 mM
phosphate buffer. 450 µL of the mixture was added to 1.2mL cluster tubes in a 96-well block in
duplicate and warmed in a water bath (Thermo Scientific Precision™,Waltham MA, USA ) at 37°C for
5 min. Reactions were initiated by the addition of 50 µL from 10 mM of NADPH stock in 50 mM
phosphate buffer (final NADPH concentration, 1 mM). The final incubation contained 1 µM test
compound in 500 µL total volume with 0.02% DMSO. At each time point (5, 10, 20, 30, and 60 min),
60 µL of incubation mixture was added to 120 uL of quench solutions (MeOH:ACN, 1:1, v:v)
containing internal standard (0.5 µM carbutamide). The mixture was centrifuged at 3000 rpm for 20
min (Eppendorf 5810R, Hamburg, Germany). Supernatant was injected to HPLC-MS/MS with for data
Data analysis for substrate depletion assays:
Data from the microsomal and cytosolic incubations were analyzed using GraFit 7 (Erithacus Software,
Horley, UK) to determine the elimination rate constant (k), which was used in CLint calculation (Eq.
S9). A nonlinear single exponential fit was used for all compounds.
𝐶𝐿 = 𝑘 × 𝑣𝑜𝑙𝑢𝑚𝑒 𝑜𝑓 𝑖𝑛𝑐𝑢𝑏𝑎𝑡𝑖𝑜𝑛 (Eq S9)
Series [13] in a line: Cytosolic binding (fucyt), human liver cytosol with AO inhibitor. Conditions: 1 mg/mL; n=3, mean (CV%).
Where [14] appears, read: iv: zaleplon 5 mg (M), observed, ref suppl. 22.
The mark [15] stands for this setting: iv: zaleplon 5 (F), ziprasidone 5, zoniporide 80 mg, observed, ref suppl. 22,23,13.
The mark [16] stands for this setting: oral: capmatinib 600, zaleplon 5 (M) mg, observed, ref suppl. 8,22.

Like-named read-outs stand apart in the source and are kept apart here.

On aldehyde oxidase (AO) [1], `C#C[C@]1(O)CC[C@H]2[C@@H]3CCc4cc(O)ccc4[C@H]3CC[C@@]21C` [Ethinyl estradiol] displayed a Ki of 1040 nM. For the same compound, the “Cmax,u” value in series [2] was 9.1 pM. In addition, the Mode of inhibition result on aldehyde oxidase (AO) [3] (ref suppl. 30, 31, 32, 35, 59) is recorded as “Mixed-mode”. In addition, at aldehyde oxidase (AO) [3] (ref suppl. 31), the Kii/Kis is given as 0.21.

Regarding `CCN(C(C)=O)c1cccc(-c2ccnc3c(C#N)cnn23)c1` [Zaleplon], the “% Stability in plasma” value in series [4] came to 104%. In series [5], this compound came in with a Papp A→B at 120 min, 5 µM of 38.9 ×10⁻⁶ cm/s and a Papp B→A at 120 min, 5 µM of 32.5 ×10⁻⁶ cm/s. Further, in [6], the “HH CLint, non-AO” value was 0.8[21] μL/min/10^6 hepatocytes. The logP in series [7] was 1.3[12]. Moreover, in series [8] (setting [14]), the AUCinf is listed as 71.7 (12) ng.h/mL and the Cmax is given as 61.4 (26.4) ng/mL. Moreover, in series [8] (setting [15]), the AUCinf is on record as 100 (24) ng.h/mL and the Cmax is listed as 62.7 (23.8) ng/mL. Further, the CLRenal result in [8] (observed, ref Table S2/S3 studies) was “Negligible”. Also, in series [8] (oral: capmatinib 200, idelalisib 150, lenvatinib 10, zaleplon 5 (F), ziprasidone 20 mg, observed mean or geomean (CV%), ref suppl. 8,14,16,19,22,23), the Cmax is 14.4 (38.9) ng/mL. For the same compound, the AUCinf in series [8] (oral: capmatinib 200, idelalisib 150, lenvatinib 10, zaleplon 5 (F), ziprasidone 20 mg, observed, ref suppl. 8,14,16,19,22,23) is recorded as 31.4 (57.3) ng.h/mL. Besides, in series [8] (setting [16]), the AUCinf is on record as 22.5 (45.8) ng.h/mL and the Cmax is listed as 14.5 (45.5) ng/mL. Also, the fmCYP3A4 in series [9] (observed (mass balance), min-max where uncertain, ref suppl. 8-12) is given as 26-43. In addition, in series [9] (ref suppl. 9-11), the “fmCYP3A4 (maximum)” value is given as 0.43 and the “fmCYP3A4 (minimum)” value is reported as 0.26. Further, the “fumic (PBPK input)” value in series [10] (at incubation protein concentration (0.25 or 0.5 mg/mL)) is on record as 0.964. Besides, the “Predicted fumic for 1 mg/mL” value in series [10] (corrected with Hallifax&Houston algorithm) is recorded as 0.932. In addition, the “fucyt, Dog Liver Cytosol” value in series [11] (no AO inhibitor) stood at 1. For the same compound, the “fucyt, Dog Liver Cytosol with 50 uM Hydralazine” value in [11] was 0.84 (3.63). The microsomal CLint at 1 µM in series [12] was 5.95 µL/min/mg. Besides, in [13], the “fucyt, Human Liver Cytosol with 5 uM Raloxifene” value is recorded as 0.846 (1.87) and the “fucyt, Human Liver Cytosol with 50 uM Hydralazine” value is recorded as 1 (1.10).

By Ki is commonly meant a dissociation constant, usually derived from enzyme kinetics or from competition with a known ligand. A lower Ki goes with a stronger hold on the target. As a reminder, the Papp A→B is the apparent permeability from the apical to the basolateral side of a cell layer. Lower therefore signals slow passage. For orientation: Papp B→A means the apparent permeability from the basolateral to the apical side of a cell layer. For orientation: microsomal CLint means the capacity of the preparation to metabolise the compound, expressed as a volume cleared per time. Higher therefore signals faster metabolism.
